How the values were obtained:
[1] = target: T1, Human OX1 receptor (Homo sapiens (Human), UniProt O43613); assay: [3H]-radioligand binding assay, OX1; conditions: for pKi average OX1: competition binding, membranes of SF21 cells, Ki by Cheng-Prusoff
Source text: (§1) Cloning, Baculovirus generation, large-scale infection of SF21 cells and membrane preparation. Human OX1 or OX2 receptor were cloned into Invitrogen's (ThermoFisher Scientific, UK) Bac-to-Bac Baculovirus Expression System. P0 baculovirus was generated by transfecting SF9 cells with bacmid DNA using Cellfectin® II transfection reagent (ThermoFisher Scientific, UK, Catalog number 10362-100). Following P0 generation P1 virus was then generated ready for large scale infection and membrane preparation. SF21 cells were grown in expression medium ESF921 (Expression Systems, USA, catalog number 96-001-01) supplemented with 10% heat-inactivated FBS and 1% Pen/Strep and were infected at a cell density of 2.5×10^6 cells/mL and a multiplicity of infection of 1.0 for both human OX1R and OX2R. Incubation was carried out at over 48 h in a shaking incubator set at 27° C. The cell culture was then centrifuged at 2,500 rcf for 10 min at 4° C. The pellets were resuspended in cold PBS supplemented with Roche's Complete EDTA-free protease inhibitor cocktail tablets (Roche Applied Sciences, catalog number 05056489001), 1 mM PMSF and 1 mM EDTA. The resuspended cell paste was then centrifuged at 3,273 rcf for 12 min at 4° C. The supernatant was discarded and the pellet frozen at −80° C. The cell pellet from a 4 L culture was resuspended in buffer containing 50 mM HEPES pH 7.5, 150 mM NaCl, 8 Roche EDTA-Free protease inhibitor cocktail tablets and 1 mM PMSF. The suspension was left stirring at rt for 1 h and then homogenised for 90 s at 9,500 rpm using a VDI 25 (VWR, USA) homogeniser. The cells were then lysed using a Microfluidiser processor M-110L Pneumatic (Microfluidics, USA) at 60 PSI and membranes collected by ultracentrifugation at 204.7 k×g for 1 h. The supernatant was discarded and the pellet was resuspended and homogenised in 90 s at 9,500 rpm in 50 mL (25 mL for each 2 L culture) of buffer containing 50 mM Hepes pH 7.5, 150 mM NaCl, 3 Roche EDTA-free protease inhibitor cocktail tablets and 1 mM PMSF. The resulting membranes were then stored at −80° C.
(§2) [^3H]-radioligand binding assay. After thawing, membrane homogenates were resuspended in the binding buffer (8.5 mM HEPES, pH 7.4, 1.3 mM CaCl2, 1.2 mM MgSO4, 118 mM NaCl, 4.7 mM KCl, 4 mM NaHCO3, 1.2 mM KH2PO4, 11 mM glucose) to a final assay concentration of 6.4 μg (OX1) or 1.4 μg (OX2) protein per well. Saturation isotherms were determined by the addition of various concentrations (0-30 nM) of [^3H]-4-(2,6-difluoro-4-methoxybenzyl)-2-(5,6-dimethoxypyridin-3-yl)-2H-1,2,4-benzothiadiazin-3(4H)-one 1,1-dioxide (Christopher et al, MedChemComm., 2015, 6, 947-955) in a total reaction volume of 250 μL for 90 min at rt. At the end of the incubation, membranes were filtered onto a 96-well GF/B filter pre-incubated with 0.5% polyethylenimine, with a Tomtec cell harvester and washed 5 times with 0.5 mL distilled water. Non-specific binding (NSB) was measured in the presence of 3.33 μM [4-(5-chloro-1,3-benzoxazol-2-yl)-7-methyl-1,4-diazepan-1-yl][5-methyl-2-(2H-1,2,3-triazol-2-yl)phenyl]methanone (Wertz et al, Angew. Chem. Int. Ed., 2011, 50, 11511-11515). Radioactivity on the filter was counted (1 min) on a Microbeta radiometric plate counter (Perkin Elmer) after addition of 50 μL of scintillation fluid (LabLogic: Part #SG-BXX-14). […] IC50 values were derived from the inhibition curve and the equilibrium dissociation constant (Ki) values were calculated using the Cheng-Prusoff equation.

[2] = target: T1, Human OX1 receptor; assay: IPone accumulation assay, CHO cells expressing OX1; type: cell-based; conditions: antagonism of orexin A (EC80 ~20 nM)-induced inositol phosphate turnover, read-out: fpKb average OX1 (converted)
Description: Generation of CHO stable cell lines expressing the human OX1R and OX2R. Stable cell lines for the human OX1R and OX2R receptors were generated through the transfection of CHO cells using the transfection reagent Genejuice (Novagen number 70967) and cDNA coding for either the human OX1R or OX2R. Cells were cultured in Sigma Nutrient Mixture F-12 Ham media (catalog number N6658) supplemented with 10% heat-inactivated FBS. Forty-eight hours after transfection, cells were harvested and placed under geneticin selection by culturing in Sigma Nutrient Mixture F-12 Ham media supplemented with 10% heat-inactivated FBS and geneticin (ThermoFisher Catalog number: 10131035). Selection of the final stable clone for each receptor was made on the basis of receptor expression, assay signal to noise and robustness though increasing passage. Selected clones for the human OX1R and OX2R were then frozen down into liquid nitrogen using Cell Freezing Medium-DMSO (Sigma-Aldrich catalog number: C6164).
(§3) IPone accumulation assay. A CHO cell line stably expressing either human OX1 or OX2 receptor was used with the IPone HTRF assay kit (CisBio: Part #62IPAPEJ) to measure receptor activation. The assay was optimised to measure the ability (potency; fpKb) of antagonists to reduce agonist (orexin A)-induced inositol phosphate turnover. Briefly, cells were plated onto half area 96-well white walled plates at a density of 12,500 cells/well. Sixteen hours post-plating cell growth media was replaced with antagonist concentration-response curve diluted in stimulation buffer (supplied with the kit). Cells were incubated in a humidified incubator (37° C.) for 30 min before an EC80 challenge concentration (˜20 nM (OX1) and 40 nM (OX2)) of orexin A (Tocris catalogue number 1455). After 30 min stimulation in a humidified incubator (37° C.) the assay was terminated by the addition of detection mixture as per manufacturer's instructions. The concentration of compound which reduced orexin-A stimulated turnover of inositol phosphates by 50% (IC50) was calculated by fitting to a four parameter sigmoidal dose response curve. The IC50 values were converted to fpKB values using the orexin A pEC50 value estimated on each plate as well as the challenge concentration interpolated from the orexin A control curve.

[3] = target: T2, Human OX2 receptor (Homo sapiens (Human), UniProt O43614); assay: IPone accumulation assay, CHO cells expressing OX2; type: cell-based; conditions: antagonism of orexin A (EC80 40 nM)-induced inositol phosphate turnover, read-out: fpKb average OX2 (converted)
T2 sequence (O43614 whole entry): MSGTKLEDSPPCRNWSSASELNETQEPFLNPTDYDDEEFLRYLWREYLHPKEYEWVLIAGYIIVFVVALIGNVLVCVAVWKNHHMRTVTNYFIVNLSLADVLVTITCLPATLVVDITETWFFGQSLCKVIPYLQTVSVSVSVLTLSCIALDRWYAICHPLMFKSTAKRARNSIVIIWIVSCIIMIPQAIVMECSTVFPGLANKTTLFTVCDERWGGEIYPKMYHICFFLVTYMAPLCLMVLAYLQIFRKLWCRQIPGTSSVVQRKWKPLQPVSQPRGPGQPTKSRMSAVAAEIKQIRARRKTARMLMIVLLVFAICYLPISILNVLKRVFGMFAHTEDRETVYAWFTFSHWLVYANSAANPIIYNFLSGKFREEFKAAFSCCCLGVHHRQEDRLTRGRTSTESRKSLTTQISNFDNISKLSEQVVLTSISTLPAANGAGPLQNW
Description: as §3, with “Generation of CHO stable cell lines expressing the human OX1R and OX2R. Stable cell lines for the human OX1R and OX2R receptors were generated through the transfection of CHO cells using the transfection reagent Genejuice (Novagen number 70967) and cDNA coding for either the human OX1R or OX2R. Cells were cultured in Sigma Nutrient Mixture F-12 Ham media (catalog number N6658) supplemented with 10% heat-inactivated FBS. Forty-eight hours after transfection, cells were harvested and placed under geneticin selection by culturing in Sigma Nutrient Mixture F-12 Ham media supplemented with 10% heat-inactivated FBS and geneticin (ThermoFisher Catalog number: 10131035). Selection of the final stable clone for each receptor was made on the basis of receptor expression, assay signal to noise and robustness though increasing passage. Selected clones for the human OX1R and OX2R were then frozen down into liquid nitrogen using Cell Freezing Medium-DMSO (Sigma-Aldrich catalog number: C6164). IPone accumulation” for “IPone accumulation”, “(CisBio: Part #62[…]) to measure” for “(CisBio: Part #62IPAPEJ) to measure”, “challenge concentration ( 20 nM (OX1)” for “challenge concentration (˜20 nM (OX1)”

[4] = target: T2, Human OX2 receptor; assay: [3H]-radioligand binding assay, OX2; conditions: for pKi average OX2: competition binding, membranes of SF21 cells, Ki by Cheng-Prusoff
Source text: as §1, §2

T1 sequence (O43613 whole entry): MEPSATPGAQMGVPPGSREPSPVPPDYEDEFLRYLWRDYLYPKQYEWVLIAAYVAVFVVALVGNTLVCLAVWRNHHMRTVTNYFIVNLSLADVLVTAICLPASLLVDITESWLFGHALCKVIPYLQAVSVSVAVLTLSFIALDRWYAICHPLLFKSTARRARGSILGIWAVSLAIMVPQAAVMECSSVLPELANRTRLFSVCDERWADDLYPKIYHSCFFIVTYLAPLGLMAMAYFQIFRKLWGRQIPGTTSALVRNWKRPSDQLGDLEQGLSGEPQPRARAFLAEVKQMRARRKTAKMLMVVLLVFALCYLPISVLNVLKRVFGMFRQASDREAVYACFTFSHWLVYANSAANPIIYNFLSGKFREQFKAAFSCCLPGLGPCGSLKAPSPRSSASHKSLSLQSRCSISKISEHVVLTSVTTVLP

| Kd ([1]; saturation isotherms) | Kd ([4]; saturation isotherms) | Compound | pKi average OX1 [1] | Kb [2] | Kb [3] | pKi average OX2 [4] |
| --- | --- | --- | --- | --- | --- | --- |
|  |  | CC(=O)Nc1ccc(-c2ncccn2)c(C(=O)N[C@H]2CCC[C@@H]2COc2ccc(Cl)cc2)n1 [Example 15, 6-acetamido-N-[(1S,2S)-2-[(4-chlorophenoxy)methyl]cyclopentyl]-3-pyrimidin-2-yl-pyridine-2-carboxamide] | 8.7 | 3.98 nM | > 631 nM | 6.2 |
|  |  | COCC(=O)Nc1ccc(-c2ncccn2)c(C(=O)N[C@H]2CCC[C@@H]2COc2ccc(F)cc2)n1 [Example 16, N-[(1S,2S)-2-[(4-fluorophenoxy)methyl]cyclopentyl]-6-[(2-methoxyacetyl)amino]-3-pyrimidin-2-yl-pyridine-2-carboxamide] | 7.7 | 200 nM | > 1000 nM | <5.1 |
|  |  | CC(=O)Nc1ccc(-n2nccn2)c(C(=O)N[C@H]2CCC[C@@H]2COc2ccc(Cl)cc2)n1 [Example 6, 6-acetamido-N-[(1S,2S)-2-[(4-chlorophenoxy)methyl]cyclopentyl]-3-(triazol-2-yl)pyridine-2-carboxamide] | 8.1 | 7.94 nM | > 631 nM | <5.2 |
|  |  | CC(=O)Nc1ccc(-n2nccn2)c(C(=O)N[C@H]2CCC[C@@H]2COc2ccc(F)cn2)n1 [Example 26, 6-acetamido-N-[(1S,2S)-2-[(5-fluoro-2-pyridyl)oxymethyl]cyclopentyl]-3-(triazol-2-yl)pyridine-2-carboxamide] | 7.9 | 316 nM | > 1000 nM | <5.1 |
|  |  | CC(=O)Nc1ccc(-c2ncccn2)c(C(=O)N[C@H]2CCC[C@@H]2COc2ccc(F)cc2)n1 [Example 14, 6-acetamido-N-[(1S,2S)-2-[(4-fluorophenoxy)methyl]cyclopentyl]-3-pyrimidin-2-yl-pyridine-2-carboxamide] | 8.3 | 3.98 nM | > 398 nM | 6.0 |
|  |  | Nc1ccc(-n2nccn2)c(C(=O)N[C@H]2CCC[C@@H]2COc2ccc(F)cc2)n1 [Example 4, 6-amino-N-[(1S,2S)-2-[(4-fluorophenoxy)methyl]cyclopentyl]-3-(triazol-2-yl)pyridine-2-carboxamide] | 8.0 | 10 nM | > 1260 nM | 5.9 |
|  |  | CC(=O)Nc1ccc(-c2ncc(F)cn2)c(C(=O)N[C@H]2CCC[C@@H]2COc2ccc(F)cc2)n1 [Example 21, 6-acetamido-N-[(1S,2S)-2-[(4-fluorophenoxy)methyl]cyclopentyl]-3-(5-fluoropyrimidin-2-yl)pyridine-2-carboxamide] | 8.2 | 20 nM | > 794 nM | 5.6 |
|  |  | O=C(N[C@H]1CCC[C@@H]1COc1ccc(F)cc1)c1nc(NC(=O)C2CC2)ccc1-n1nccn1 [Example 13, 6-(cyclopropanecarbonylamino)-N-[(1S,2S)-2-[(4-fluorophenoxy)methyl]cyclopentyl]-3-(triazol-2-yl)pyridine-2-carboxamide] | 7.8 |  | > 1000 nM | <6.0 |
|  |  | Nc1ccc(-c2ncccn2)c(C(=O)N[C@H]2CCC[C@@H]2COc2ccc(F)cc2)n1 [Example 12, 6-amino-N-[(1S,2S)-2-[(4-fluorophenoxy)methyl]cyclopentyl]-3-pyrimidin-2-yl-pyridine-2-carboxamide] | 8.2 | 5.01 nM |  |  |
| 1.5 nM | 0.75 nM | COc1cc(F)c(CN2C(=O)N(c3cnc(OC)c(OC)c3)S(=O)(=O)c3ccccc32)c(F)c1 [[^3H]-4-(2,6-difluoro-4-methoxybenzyl)-2-(5,6-dimethoxypyridin-3-yl)-2H-1,2,4-benzothiadiazin-3(4H)-one 1,1-dioxide, reference compound] |  |  |  |  |
